Values of other authors, collected in paper PMC8201747, “Cell Permeability of Isomeric Macrocycles: Predictions and NMR Studies” (ACS Medicinal Chemistry Letters, 2021).

Test system: Caco-2 cell monolayer
Conditions: Table S17, reported previously, ref 13 (SI); for ER (efflux ratio): Caco-2

Compound	ER (efflux ratio)	Permeability (passive permeability across a Caco-2 cell monolayer, Papp AB+inhibitor cocktail) [×10⁻⁶ cm/s]
CO[C@@H]1CC[C@@H]2CCN(C)C(=O)[C@H](C)[C@H](OC)CN(C)C(=O)c3cccc(C#N)c3OC[C@@H]1O2 [Macrocycle 6]	0.81	23.08
CO[C@H]1CN(C)C(=O)c2cc(C#N)ccc2OC[C@@H]2O[C@H](CC[C@H]2OC)CCN(C)C(=O)[C@@H]1C [Macrocycle 5]	1.40	1.89
CO[C@H]1CN(C)C(=O)c2cccc(C#N)c2OC[C@@H]2O[C@H](CC[C@H]2OC)CCN(C)C(=O)[C@@H]1C [Macrocycle 7]	0.78	6.36
